# According to ChEMBL document CHEMBL4680215, “Substituted 1-methyl-4-phenylpyrrolidin-2-ones - Fragment-based design of N-methylpyrrolidone-derived bromodomain inhibitors” (Eur J Med Chem, 2020):
# Biological target: Bromodomain-containing protein 4 (Homo sapiens, UniProt O60885)
# Test: Inhibition of GST-tagged BRD4-BD1 (49 to 170 residues) (unknown origin) using Histone H4 peptide as substrate incubated for 1.5 hrs by FRET assay
row,Compound,IC50 [µM]
1,CCN(CC)S(=O)(=O)c1ccc(C2CC(=O)N(C)C2)c(-c2csc3ccccc23)c1 (stereo not given),2670
2,CN1CC(c2ccc(Br)cc2)CC1=O (stereo not given),417
3,CN1CC(c2ccc(S(=O)(=O)N3CCCCC3)cc2)CC1=O (stereo not given),144
4,CCN(CC)S(=O)(=O)c1ccc([C@@H]2CC(=O)N(C)C2)c(-c2ccc(OC)c(OC)c2)c1,35.2
5,CCN(CC)S(=O)(=O)c1ccc(C2CC(=O)N(C)C2)cc1 (stereo not given),123
6,CCN(CC)S(=O)(=O)c1ccc(C2CC(=O)N(C)C2)c(CCc2ccccc2)c1 (stereo not given),4500
7,CN1CC(c2ccc(S(=O)(=O)NCCCn3ccnc3)cc2)CC1=O (stereo not given),1390
8,CCN(CC)S(=O)(=O)c1ccc(C2CC(=O)N(C)C2)c(Br)c1 (stereo not given),652
9,CCCNS(=O)(=O)c1ccc(C2CC(=O)N(C)C2)cc1 (stereo not given),147
10,CN1CC(c2ccccc2-c2ccccc2)CC1=O (stereo not given),575
11,CCNS(=O)(=O)c1ccc(C2CC(=O)N(C)C2)cc1 (stereo not given),250
12,CCN(CC)S(=O)(=O)c1ccc([C@H]2CC(=O)N(C)C2)c(-c2ccc(OC)c(OC)c2)c1,14.1
13,CN1CC(c2ccc(S(=O)(=O)N3CCCc4ccccc43)cc2)CC1=O (stereo not given),450
14,CN1CC(c2ccccc2)CC1=O (stereo not given),1140
15,CN1CC(c2ccc(S(=O)(=O)NCc3ccccc3)cc2)CC1=O (stereo not given),443
16,CN1CC(c2ccc(S(=O)(=O)N3C4CCC3CC(=O)C4)cc2)CC1=O (stereo not given),223
17,CN1CC(c2ccc(S(=O)(=O)N3CCC[C@H](C(=O)O)C3)cc2)CC1=O (stereo not given in full),1960
18,CCN(CC)S(=O)(=O)c1ccc(C2CC(=O)N(C)C2)c(CCCc2ccccc2)c1 (stereo not given),> 5000
19,CN1CC(c2ccc(S(=O)(=O)N3CCC[C@@H](C(=O)O)C3)cc2)CC1=O (stereo not given in full),1680
20,CC(C)NS(=O)(=O)c1ccc(C2CC(=O)N(C)C2)cc1 (stereo not given),134
21,CCN(CC)S(=O)(=O)c1ccc(C2CC(=O)N(C)C2)c(-c2ccc(OC)c(OC)c2)c1 (stereo not given),51.6
22,CN1CC(c2ccc(S(=O)(=O)NC34CC5CC(CC(C5)C3)C4)cc2)CC1=O (stereo not given),151
23,CN1C[C@@H](c2ccccc2)CC1=O,629
24,CN1CC(c2ccccc2Br)CC1=O (stereo not given),321
25,CCN(CC)S(=O)(=O)c1ccc(C2CC(=O)N(C)C2)c(-c2ccccc2)c1 (stereo not given),3200
26,CN1CC(c2ccc(S(=O)(=O)N3CCOCC3)cc2)CC1=O (stereo not given),276
27,CN1CC(c2ccc(-c3ccccc3)cc2)CC1=O (stereo not given),434
28,CN1CC(c2ccc(S(=O)(=O)N3CCC(c4ccccc4)CC3)cc2)CC1=O (stereo not given),473
29,CCN(CC)S(=O)(=O)c1ccc(C2CC(=O)N(C)C2)c(-c2ccc(N(C)C)cc2)c1 (stereo not given),217
30,CN1C[C@H](c2ccccc2)CC1=O,1430
